Data as given in US8541460B2, “PDK-1/Akt signaling inhibitors” (The Ohio State University, priority 2003, dated 2013).

Assays:
PC-3 = experiment: NCI DTP cell line screen (SRB), Prostate Cancer; format: cell-based
Method: (§1) Screening of compounds 70 and 71 against several cancer cell lines The human tumor cell lines of the cancer screening panel are grown in RPMI 1640 medium containing 5% fetal bovine serum and 2 mM L-glutamine. For a typical screening experiment, cells are inoculated into 96 well microtiter plates in 100 μL at plating densities ranging from 5,000 to 40,000 cells/well depending on the doubling time of individual cell lines. After cell inoculation, the microtiter plates are incubated at 37° C., 5% CO2, 95% air and 100% relative humidity for 24 h prior to addition of experimental drugs.
(§2) After 24 h, two plates of each cell line are fixed in situ with TCA, to represent a measurement of the cell population for each cell line at the time of drug addition (Tz). Experimental drugs are solubilized in dimethyl sulfoxide at 400-fold the desired final maximum test concentration and stored frozen prior to use. At the time of drug addition, an aliquot of frozen concentrate is thawed and diluted to twice the desired final maximum test concentration with complete medium containing 50 μg/ml gentamicin. Additional four, 10-fold or ½ log serial dilutions are made to provide a total of five drug concentrations plus control. Aliquots of 100 μl of these different drug dilutions are added to the appropriate microtiter wells already containing 100 μl of medium, resulting in the required final drug concentrations.
(§3) Following drug addition, the plates are incubated for an additional 48 h at 37° C., 5% CO2, 95% air, and 100% relative humidity. For adherent cells, the assay is terminated by the addition of cold TCA. Cells are fixed in situ by the gentle addition of 50 μl of cold 50% (w/v) TCA (final concentration, 10% TCA) and incubated for 60 minutes at 4° C. The supernatant is discarded, and the plates are washed five times with tap water and air dried. Sulforhodamine B (SRB) solution (100 μl) at 0.4% (w/v) in 1% acetic acid is added to each well, and plates are incubated for 10 minutes at room temperature. After staining, unbound dye is removed by washing five times with 1% acetic acid and the plates are air dried. Bound stain is subsequently solubilized with 10 mM trizma base, and the absorbance is read on an automated plate reader at a wavelength of 515 nm. For suspension cells, the methodology is the same except that the assay is terminated by fixing settled cells at the bottom of the wells by gently adding 50 μl of 80% TCA (final concentration, 16% TCA). Using the seven absorbance measurements [time zero, (Tz), control growth, (C), and test growth in the presence of drug at the five concentration levels (Ti)], the percentage growth is calculated at each of the drug concentrations levels. Percentage growth inhibition is calculated as: [(Ti−Tz)/(C−Tz)]×100 for concentrations for which Ti>/=Tz [(Ti−Tz)/Tz]×100 for concentrations for which Ti<Tz
(§4) Three dose response parameters are calculated for each experimental agent. […] The drug concentration resulting in total growth inhibition (TGI) is calculated from Ti=Tz. […] Values are calculated for each of these three parameters if the level of activity is reached; however, if the effect is not reached or is exceeded, the value for that parameter is expressed as greater or less than the maximum or minimum concentration tested.
(§5) The methods described were used to test compounds 70 and 71 on a panel of sixty cell lines under a screening service provided by the Developmental Therapeutics Program at the National Institutes of Health. Shown in FIG. 1C are 1, RPMI-8226 leukemia cells; 2; NCI-H322M non-small cell lung cancer cells; 3, HT29 colon cancer cells; 4, U251 CNS cancer cells; 5, SK-MEL-28 melanoma cancer cells; 6, SK-OV-3 ovarian cancer cells; 7, RXF 393 renal cancer cells; 8, PC-3 prostate cancer cells; 9, MDA-MB-231 breast cancer cells.

DU-145 = experiment: NCI DTP cell line screen (SRB), Prostate Cancer; format: cell-based
Method: as §1, §2, §3, §4, §5

PC-3 cells = experiment: Apoptosis analysis (DNA fragmentation ELISA, PARP cleavage); format: cell-based, human; conditions: 1% FBS-containing medium
Method: Apoptosis analysis Two methods were used to assess drug-induced apoptotic cell death: detection of DNA fragmentation by the Cell Death Detection ELISA kit (Roche Diagnostics. Mannheim, Germany) and Western blot analysis of poly-(ADP-ribose)polymerase (PARP) cleavage. […] In brief, 4×10^5 PC-3 cells were cultured in a T-25 flask for 24 h before treatment. Cells were treated with the DMSO vehicle or the test agent at the indicated concentrations for 6-24 h, collected, and cell lysates equivalent to 2×10^3 PC-3 cells were used in the ELISA. For the PARP cleavage assay, drug-treated cells were collected 4-8 h post-treatment, washed with ice-cold PBS, and resuspended in lysis buffer containing 20 mM Tris-HCl, pH 8, 137 mM NaCl, 1 mM CaCl2, 10% glycerol, 1% Nonidet P-40, 0.5% deoxycholate, 0.1% SDS, 100 μM 4-(2-aminoethyl)benzenesulfonyl fluoride, leupeptin at 10 μg/mL, and aprotinin at 10 μg/mL. Soluble cell lysates were collected after centrifugation at 10,000 g for 5 min. Equivalent amounts of proteins (60-100 μg) from each lysate were resolved in 8% SDS-polyacrylamide gels. Bands were transferred to nitrocellulose membranes, and analyzed by immunoblotting with anti-PARP antibody.

HCT-15 = experiment: NCI DTP cell line screen (SRB), Colon Cancer; format: cell-based
HOP-92 = experiment: NCI DTP cell line screen (SRB), Non-Small Cell Lung Cancer; format: cell-based
HT29 = experiment: NCI DTP cell line screen (SRB), Colon Cancer; format: cell-based
[1] = read-out: LC50 (the source's name)

`NCC(=O)Nc1ccc(-n2nc(C(F)(F)F)cc2-c2ccc3c(ccc4ccccc43)c2)cc1` [Compound 70, 2-Amino-N-{4-[5-(2-phenanthrenyl)-3-(trifluoromethyl)-1H-pyrazol-1-yl]-phenyl}-acetamide] was tested, and the TGI (PC-3) was 2.38E−06, the “Percent Growth” value (PC-3; Log10 Concentration −4.0) was −55% and the “Percent Growth” value (PC-3; Log10 Concentration −5.0) was −77%. For the same compound, the “Percent Growth” value (PC-3; Log10 Concentration −6.0) was 47%, the “Percent Growth” value (PC-3; Log10 Concentration −7.0) was 69% and the “Percent Growth” value (PC-3; Log10 Concentration −8.0) was 89%. For the same compound, the TGI (DU-145) was 3.47E−06, the “Percent Growth” value (DU-145; Log10 Concentration −4.0) was −60% and the “Percent Growth” value (DU-145; Log10 Concentration −5.0) was −76%. The “Percent Growth” value (DU-145; Log10 Concentration −6.0) was 90%, the “Percent Growth” value (DU-145; Log10 Concentration −7.0) was 109% and the “Percent Growth” value (DU-145; Log10 Concentration −8.0) was 105%. For the same compound, the “apoptotic death in PC-3 cells (DNA fragmentation and PARP cleavage)” value (PC-3 cells) was “induced apoptotic death in PC-3 cells in 1% FBS-containing medium in a dose-dependent manner”, the TGI (HCT-15) was 3.19E−06 and the “Percent Growth” value (HCT-15; Log10 Concentration −5.0) was −47%. The “Percent Growth” value (HCT-15; Log10 Concentration −6.0) was 47%, the “Percent Growth” value (HCT-15; Log10 Concentration −7.0) was 54% and the “Percent Growth” value (HCT-15; Log10 Concentration −8.0) was 81%. The TGI (HOP-92) was 3.07E−06, the “Percent Growth” value (HOP-92; Log10 Concentration −4.0) was −75% and the “Percent Growth” value (HOP-92; Log10 Concentration −5.0) was −91%. For the same compound, the “Percent Growth” value (HOP-92; Log10 Concentration −6.0) was 87%, the “Percent Growth” value (HOP-92; Log10 Concentration −7.0) was 89% and the “Percent Growth” value (HOP-92; Log10 Concentration −8.0) was 96%. For the same compound, the TGI (HT29) was 2.64E−06, the “Percent Growth” value (HT29; Log10 Concentration −4.0) was −26% and the “Percent Growth” value (HT29; Log10 Concentration −5.0) was −65%. For the same compound, the “Percent Growth” value (HT29; Log10 Concentration −6.0) was 47%, the “Percent Growth” value (HT29; Log10 Concentration −7.0) was 88% and the “Percent Growth” value (HT29; Log10 Concentration −8.0) was 92%.

`N=C(N)Nc1ccc(-n2nc(C(F)(F)F)cc2-c2ccc3c(ccc4ccccc43)c2)cc1` [Compound 71, 4-[5-(2-Phenanthrenyl)-3-(trifluoromethyl)-1H-pyrazol-1-yl]-phenyl-guanidine] was tested, and the GI50 (PC-3) was 1380 nM, the TGI (PC-3) was 2.67E−06 and the “Mean Optical Densities” value (PC-3; Log10 Concentration −4.0) was 0.179. The “Percent Growth” value (PC-3; Log10 Concentration −4.0) was −26%, the “Mean Optical Densities” value (PC-3; Log10 Concentration −5.0) was −0.022 and the “Percent Growth” value (PC-3; Log10 Concentration −5.0) was −100%. The “Mean Optical Densities” value (PC-3; Log10 Concentration −6.0) was 0.857, the “Percent Growth” value (PC-3; Log10 Concentration −6.0) was 75% and the “Mean Optical Densities” value (PC-3; Log10 Concentration −7.0) was 0.846. For the same compound, the “Percent Growth” value (PC-3; Log10 Concentration −7.0) was 73%, the “Mean Optical Densities” value (PC-3; Log10 Concentration −8.0) was 0.862 and the “Percent Growth” value (PC-3; Log10 Concentration −8.0) was 75%. For the same compound, the GI50 (DU-145) was 1550 nM, the TGI (DU-145) was 2.89E−06 and the “Mean Optical Densities” value (DU-145; Log10 Concentration −4.0) was −0.019. For the same compound, the “Percent Growth” value (DU-145; Log10 Concentration −4.0) was −100%, the “Mean Optical Densities” value (DU-145; Log10 Concentration −5.0) was −0.074 and the “Percent Growth” value (DU-145; Log10 Concentration −5.0) was −100%. For the same compound, the “Mean Optical Densities” value (DU-145; Log10 Concentration −6.0) was 0.760, the “Percent Growth” value (DU-145; Log10 Concentration −6.0) was 85% and the “Mean Optical Densities” value (DU-145; Log10 Concentration −7.0) was 0.767. The “Percent Growth” value (DU-145; Log10 Concentration −7.0) was 87%, the “Mean Optical Densities” value (DU-145; Log10 Concentration −8.0) was 0.694 and the “Percent Growth” value (DU-145; Log10 Concentration −8.0) was 72%. For the same compound, the CC50 (DU-145; [1]) was 5370 nM, the “apoptotic death in PC-3 cells (DNA fragmentation and PARP cleavage)” value (PC-3 cells) was “induced apoptotic death in PC-3 cells in 1% FBS-containing medium in a dose-dependent manner” and the GI50 (HCT-15) was 1540 nM. The TGI (HCT-15) was 2.87E−06, the “Mean Optical Densities” value (HCT-15; Log10 Concentration −4.0) was 0.082 and the “Percent Growth” value (HCT-15; Log10 Concentration −4.0) was −71%. For the same compound, the “Mean Optical Densities” value (HCT-15; Log10 Concentration −5.0) was −0.003, the “Percent Growth” value (HCT-15; Log10 Concentration −5.0) was −100% and the “Mean Optical Densities” value (HCT-15; Log10 Concentration −6.0) was 0.797. The “Percent Growth” value (HCT-15; Log10 Concentration −6.0) was 84%, the “Mean Optical Densities” value (HCT-15; Log10 Concentration −7.0) was 0.779 and the “Percent Growth” value (HCT-15; Log10 Concentration −7.0) was 81%. For the same compound, the “Mean Optical Densities” value (HCT-15; Log10 Concentration −8.0) was 0.669, the “Percent Growth” value (HCT-15; Log10 Concentration −8.0) was 64% and the CC50 (HCT-15; [1]) was 5360 nM. For the same compound, the GI50 (HOP-92) was 1010 nM, the TGI (HOP-92) was 2.26E−06 and the “Mean Optical Densities” value (HOP-92; Log10 Concentration −4.0) was 0.767. For the same compound, the “Percent Growth” value (HOP-92; Log10 Concentration −4.0) was −28%, the “Mean Optical Densities” value (HOP-92; Log10 Concentration −5.0) was 0.089 and the “Percent Growth” value (HOP-92; Log10 Concentration −5.0) was −92%. For the same compound, the “Mean Optical Densities” value (HOP-92; Log10 Concentration −6.0) was 1.361, the “Percent Growth” value (HOP-92; Log10 Concentration −6.0) was 50% and the “Mean Optical Densities” value (HOP-92; Log10 Concentration −7.0) was 1.541. For the same compound, the “Percent Growth” value (HOP-92; Log10 Concentration −7.0) was 82%, the “Mean Optical Densities” value (HOP-92; Log10 Concentration −8.0) was 1.567 and the “Percent Growth” value (HOP-92; Log10 Concentration −8.0) was 86%. For the same compound, the GI50 (HT29) was 1500 nM, the TGI (HT29) was 2.83E−06 and the “Mean Optical Densities” value (HT29; Log10 Concentration −4.0) was 0.003. The “Percent Growth” value (HT29; Log10 Concentration −4.0) was −99%, the “Mean Optical Densities” value (HT29; Log10 Concentration −5.0) was −0.054 and the “Percent Growth” value (HT29; Log10 Concentration −5.0) was −100%. For the same compound, the “Mean Optical Densities” value (HT29; Log10 Concentration −6.0) was 1.136, the “Percent Growth” value (HT29; Log10 Concentration −6.0) was 82% and the “Mean Optical Densities” value (HT29; Log10 Concentration −7.0) was 1.238. The “Percent Growth” value (HT29; Log10 Concentration −7.0) was 91%, the “Mean Optical Densities” value (HT29; Log10 Concentration −8.0) was 1.276 and the “Percent Growth” value (HT29; Log10 Concentration −8.0) was 95%. The CC50 (HT29; [1]) was 5320 nM.
